For orientation: IC50 means the point on the concentration scale where inhibition reaches its midpoint. In general, EC50 refers to the concentration that produces a half-maximal response.

Data on seven compounds can be found in ChEMBL document CHEMBL1201862, “PubChem BioAssay data set” (2004).

Assay [1] has as its target Cytochrome P450 2C9 (Homo sapiens, UniProt P11712). As to conditions: Potency.
For assay [2], the target named is T1, Ubiquitin-conjugating enzyme E2 N (Homo sapiens, UniProt P61088).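 Further: Dose-response confirmation in a TR-FRET assay detecting UBC13-driven polyubiquitin chain formation, inhibition measured.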
T1 sequence (P61088 whole entry): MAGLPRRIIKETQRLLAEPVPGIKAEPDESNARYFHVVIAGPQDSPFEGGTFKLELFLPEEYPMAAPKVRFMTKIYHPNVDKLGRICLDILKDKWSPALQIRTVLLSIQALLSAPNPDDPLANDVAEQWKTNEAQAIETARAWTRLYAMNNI
In kind it is functional.

Assay [3] is described as follows: glucagon-like peptide-1 release potency in STC-1, concentration-response, half-maximal inhibitory concentration in the STC-1 line (AID 1117345). In kind it is functional, cell-based.
Assay [4] in a line: Potency on glucagon-like peptide 1 release, dose-response in NCI-H716 cell line, half maximal inhibitory concentration (AID 1117344). Format: functional, cell-based.
Assay [5] deals with Cytochrome P450 2C19 (Homo sapiens, UniProt P33261). Kind of assay: qHTS Assay for Inhibitors and Substrates of Cytochrome P450 2C19. [Related pubchem assays: 410 ]. In kind it is ADME. As to conditions: read-out: Potency. (In general: In qHTS, concentration-response curves come from the screen itself.)
Assay [6] has as its target Estrogen receptor beta (Homo sapiens, UniProt Q92731). Kind of assay: blockers of SRC-3 recruitment to ERβ – biochemical, ELISA, streptavidin-HRP readout, orthogonal assay, confirmation (AID 1060). On the technique in general: An ELISA detects its analyte on a solid surface through an enzyme-linked reagent.
Assay [7] is described as follows: HPDE-C7 pancreatic duct cell viability loss – fluorescence, HTS (AID 430). In kind it is functional, cell-based. The note with it: Homo sapiens.
Assay [8] is described as follows: viability loss of HPDE-C7K cells – cell-based, fluorescence, HTS, primary screen (AID 431). In kind it is functional. The note with it: Homo sapiens.
Assay [9] in a line: reduction of Shn3 3'UTR-driven luciferase in osteoblasts – cell-based, Clone20 osteoblasts, firefly luciferase, cherry-picked, dose response (AID 624132).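 Further: firefly luciferase luminescence from reporter carrying the Shn3 3'UTR in osteoblasts.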 In kind it is functional.
Assay [10] is described as follows: loss of viability in HepG2 cells – cell-based, CellTiter-Glo, cherry-picked, cytotoxicity control for Shn3 inhibitor project, dose response (AID 624134). In kind it is functional.
Assay [11] has as its target T2, Replicative DNA helicase DnaB (Mycobacterium tuberculosis, UniProt P9WMR3).
T2 sequence (P9WMR3 whole entry): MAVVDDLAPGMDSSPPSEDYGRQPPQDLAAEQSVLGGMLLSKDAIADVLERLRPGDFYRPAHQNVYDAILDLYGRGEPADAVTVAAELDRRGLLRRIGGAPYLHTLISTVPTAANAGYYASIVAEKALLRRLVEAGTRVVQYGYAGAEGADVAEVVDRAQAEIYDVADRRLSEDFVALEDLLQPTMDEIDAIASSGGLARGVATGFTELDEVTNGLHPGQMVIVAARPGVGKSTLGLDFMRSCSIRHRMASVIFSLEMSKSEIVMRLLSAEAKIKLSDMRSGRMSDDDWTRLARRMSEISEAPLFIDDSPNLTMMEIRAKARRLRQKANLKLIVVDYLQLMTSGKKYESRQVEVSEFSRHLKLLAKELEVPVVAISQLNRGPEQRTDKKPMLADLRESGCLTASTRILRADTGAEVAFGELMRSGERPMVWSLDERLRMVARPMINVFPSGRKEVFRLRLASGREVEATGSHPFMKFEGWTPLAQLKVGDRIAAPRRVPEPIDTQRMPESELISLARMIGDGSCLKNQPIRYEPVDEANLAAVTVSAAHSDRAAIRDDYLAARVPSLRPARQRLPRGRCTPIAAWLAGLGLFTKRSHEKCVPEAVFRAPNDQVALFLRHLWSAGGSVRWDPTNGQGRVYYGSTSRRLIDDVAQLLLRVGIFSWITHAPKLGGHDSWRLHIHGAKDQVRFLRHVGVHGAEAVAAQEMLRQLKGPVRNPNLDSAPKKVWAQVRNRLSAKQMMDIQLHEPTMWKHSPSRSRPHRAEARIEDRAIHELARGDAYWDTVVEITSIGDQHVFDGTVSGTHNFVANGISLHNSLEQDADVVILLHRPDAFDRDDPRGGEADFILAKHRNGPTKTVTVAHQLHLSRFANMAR
The assay is described as follows: DnaB intein splicing inhibitors, dose response, biochemical, cell-free fluorescence (AID 449749). Format: functional.

Assay [12] is described as follows: Luminescence Cell-Based Dose Retest to Confirm Inhibitors of Cancer Stem Cells. [Related pubchem assays (depositor defined):AID2717, AID2721]. Format: functional. The note with it: Homo sapiens.
Assay [13] can be described thus: non-specific 3'UTR reporter inhibition in Clone20-Shn3RL – cell-based, Renilla luciferase, cherry-picked, counter-screen for Shn3 inhibitor project, dose response (AID 624133). In kind it is functional. For orientation: Counterscreens check selectivity or assay interference.
Assay [14] addresses T3, Protein RecA (Mycobacterium tuberculosis, UniProt P9WHJ3).
T3 sequence (P9WHJ3 whole entry): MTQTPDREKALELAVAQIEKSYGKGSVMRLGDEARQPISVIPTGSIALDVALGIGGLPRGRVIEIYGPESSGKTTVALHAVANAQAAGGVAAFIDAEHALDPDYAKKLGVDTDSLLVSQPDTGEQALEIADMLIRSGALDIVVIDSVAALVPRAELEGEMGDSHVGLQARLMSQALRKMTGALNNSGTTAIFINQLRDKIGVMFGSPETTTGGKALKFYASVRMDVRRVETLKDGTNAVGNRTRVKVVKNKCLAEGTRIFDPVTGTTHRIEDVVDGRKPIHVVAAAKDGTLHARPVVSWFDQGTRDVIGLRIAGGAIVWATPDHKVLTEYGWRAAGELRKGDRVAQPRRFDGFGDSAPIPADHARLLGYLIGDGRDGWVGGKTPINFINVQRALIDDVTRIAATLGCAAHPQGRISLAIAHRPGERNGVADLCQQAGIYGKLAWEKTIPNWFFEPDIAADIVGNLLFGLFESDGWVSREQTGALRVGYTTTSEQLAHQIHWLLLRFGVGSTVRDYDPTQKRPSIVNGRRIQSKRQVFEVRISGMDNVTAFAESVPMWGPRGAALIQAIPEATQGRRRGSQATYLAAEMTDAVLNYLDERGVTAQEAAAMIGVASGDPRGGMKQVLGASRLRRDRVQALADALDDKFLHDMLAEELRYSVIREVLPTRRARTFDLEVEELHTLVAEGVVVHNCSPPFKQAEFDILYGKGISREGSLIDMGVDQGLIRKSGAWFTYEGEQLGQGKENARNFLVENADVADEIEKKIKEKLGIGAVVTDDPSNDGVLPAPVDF
The assay is described as follows: Fluorescence Cell-Free Homogeneous Dose Retest to Identify Inhibitors of RecA-Intein Splicing Activity. [Related pubchem assays (depositor defined):AID2097, AID2223, AID489010, AID492950]. In kind it is functional.

SMILES strings stand for the structures. Active and inactive are the calls of the source.

Chain of Cytochrome P450 2C9 (P11712 whole entry): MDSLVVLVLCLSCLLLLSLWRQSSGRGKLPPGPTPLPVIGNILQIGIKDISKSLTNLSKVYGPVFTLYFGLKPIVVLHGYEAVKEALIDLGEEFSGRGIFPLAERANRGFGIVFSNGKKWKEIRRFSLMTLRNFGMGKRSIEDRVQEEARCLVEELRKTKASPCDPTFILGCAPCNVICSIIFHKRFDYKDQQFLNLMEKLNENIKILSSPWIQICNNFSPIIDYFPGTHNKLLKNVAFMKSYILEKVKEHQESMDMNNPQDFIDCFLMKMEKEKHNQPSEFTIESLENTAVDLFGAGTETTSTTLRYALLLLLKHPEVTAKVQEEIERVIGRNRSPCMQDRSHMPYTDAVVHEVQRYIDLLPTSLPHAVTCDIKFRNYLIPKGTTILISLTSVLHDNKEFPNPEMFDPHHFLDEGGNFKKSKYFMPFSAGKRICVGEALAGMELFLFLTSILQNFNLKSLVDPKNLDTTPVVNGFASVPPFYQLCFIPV
Chain of Estrogen receptor beta (Q92731 whole entry): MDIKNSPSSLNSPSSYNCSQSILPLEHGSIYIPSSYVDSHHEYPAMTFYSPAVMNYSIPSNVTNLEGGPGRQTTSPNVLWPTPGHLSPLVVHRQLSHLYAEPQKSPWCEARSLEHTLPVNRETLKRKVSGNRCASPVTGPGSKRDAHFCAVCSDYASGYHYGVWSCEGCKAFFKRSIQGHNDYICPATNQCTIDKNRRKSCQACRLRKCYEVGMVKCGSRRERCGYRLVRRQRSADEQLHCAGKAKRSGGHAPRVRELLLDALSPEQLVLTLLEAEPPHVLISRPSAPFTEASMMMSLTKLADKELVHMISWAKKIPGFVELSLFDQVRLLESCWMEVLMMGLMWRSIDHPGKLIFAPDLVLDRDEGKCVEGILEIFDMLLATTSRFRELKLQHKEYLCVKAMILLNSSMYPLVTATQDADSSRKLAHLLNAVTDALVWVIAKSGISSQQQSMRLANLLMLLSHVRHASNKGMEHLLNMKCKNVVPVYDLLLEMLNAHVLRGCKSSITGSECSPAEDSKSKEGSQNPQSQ
Chain of Cytochrome P450 2C19 (P33261 whole entry): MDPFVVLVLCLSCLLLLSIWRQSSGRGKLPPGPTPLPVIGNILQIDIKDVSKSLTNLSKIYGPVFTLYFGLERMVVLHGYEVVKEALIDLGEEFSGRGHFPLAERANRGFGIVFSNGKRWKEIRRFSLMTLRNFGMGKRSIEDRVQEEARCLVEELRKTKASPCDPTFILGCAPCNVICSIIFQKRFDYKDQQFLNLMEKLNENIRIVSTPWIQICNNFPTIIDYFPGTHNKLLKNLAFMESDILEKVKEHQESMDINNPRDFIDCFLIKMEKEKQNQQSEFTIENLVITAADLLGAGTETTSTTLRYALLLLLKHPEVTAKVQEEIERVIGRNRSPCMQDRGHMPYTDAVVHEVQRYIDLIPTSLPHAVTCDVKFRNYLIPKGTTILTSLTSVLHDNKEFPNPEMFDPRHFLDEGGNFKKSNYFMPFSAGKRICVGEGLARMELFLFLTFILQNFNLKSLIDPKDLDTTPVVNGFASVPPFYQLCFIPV

Take `NCCC[C@@H](CC(=O)N[C@@H]1CCCC[C@H]1C(=O)N[C@H](CC(=O)N[C@@H](CCC(=O)O)CC(=O)O)Cc1ccccc1)NC(=O)C[C@H](CO)NC(=O)[C@@H]1CNCC[C@H]1N`: in [1], the AC50 was 39.8 µM (inconclusive).

Take `CN(C(=O)CN(CCO)CC(=O)N(C)C(C)(C)Cc1ccccc1)C(C)(C)Cc1ccccc1` [OXETHAZAINE]: the IC50 is > 20 µM (inactive) in [2], > 40 µM (inactive) in assay [3] and 25.1 µM (inactive) in assay [4].

Take `COC(=O)C1C(c2ccccc2)C2C(=O)c3c(OC)cc(OC)cc3O[C@@]12c1ccc(OC)cc1` (stereo partly drawn): the AC50 in assay [5] is 0.001 µM (inconclusive).

With `O=C(Nc1ccc(S(=O)(=O)N2CCOCC2)cc1)c1cc(Cl)ccc1NS(=O)(=O)c1ccc(Cl)s1`, the IC50 in [3] and in assay [4] was > 40 µM (inactive) each time.

Regarding `O=C(NCC1CCCO1)c1cc(-c2ccco2)nc2ccccc12` (stereo not drawn), in assay [6], the IC50 is reported as 26.4 µM (not active).

On to `CCCOC(=O)c1ccc(Oc2c(C)n[nH]c2-c2ccc(O)cc2O)cc1`, for which the EC50 in assay [7] is 10.3 µM (active); in assay [8], 13.7 µM (active).

`CC(C)C[C@H](N)c1nnc(S(=O)(=O)Cc2ccc(F)cc2)o1`: the AC50 in assay [9] is 9.02 µM (active); in [10], 27.4 µM (active); in assay [11] it was 1.4 µM (active); in [12], 4.78 µM (active); in [13] it was 22.1 µM (active). The EC50 in assay [7] was 8.98 µM (active); in assay [8] it was 7.91 µM (active); in [14], 25.7 µM (active).
